According to ChEMBL document CHEMBL1139797, “Conversion of the LXR-agonist TO-901317--from inverse to normal modulation of gamma-secretase by addition of a carboxylic acid and a lipophilic anchor” (Bioorg Med Chem Lett, 2007):
The source made the active and inactive calls. No cut-off for these calls is given here.

Key:
Type in all cases: cell-based
Gamma-secretase [1] = assay: Effect on gamma-secretase activity in human H4 cells expressing APP695 assessed as reduction of Amyloid beta-38 formation by LPECL assay
Gamma-secretase [2] = assay: (§1) Effect on gamma-secretase activity in human H4 cells expressing APP695 assessed as reduction of Amyloid beta-40 formation LPECL assay
H4 = assay: Cytotoxicity against human H4 cells assessed as reduction of viability
Gamma-secretase [3] = assay: Effect on gamma-secretase activity in human H4 cells expressing APP695 assessed as increase in Amyloid beta-42 formation LPECL assay
Gamma-secretase [4] = assay: Effect on gamma-secretase activity in human H4 cells expressing APP695 assessed as increase in Amyloid beta38 formation by LPECL assay
Gamma-secretase [5] = assay: Effect on gamma-secretase activity in human H4 cells expressing APP695 assessed as reduction of Amyloid beta-42 formation LPECL assay
[6] = target: Gamma-secretase (Homo sapiens) (UniProt Q96BI3+Q9NZ42+Q8WW43+P49768+Q92542+P49810); assay: as §1

Row | SMILES | IC50 (Gamma-secretase [1]) [µM] | IC50 (Gamma-secretase [2]) [µM] | EC50 (Gamma-secretase [3]) [µM] | EC50 (Gamma-secretase [4]) [µM] | IC50 (Gamma-secretase [5]) [µM] | Activity [6] | Activity (H4) [µM]
1 | CC(C)c1cc(C(C)C)c(S(=O)(=O)n2c3ccccc3c3ccc(OCC(=O)O)cc32)c(C(C)C)c1 |  |  |  | 7.8 |  |  | 20
2 | CCCCCCCCCCn1c2ccccc2c2ccc(OCC(=O)O)cc21 |  |  |  |  |  |  | > 40
3 | CCCCCCCCCCn1c2ccc(Cl)cc2c2ccc(C(C)C(=O)O)cc21 (stereo not given) |  |  |  | 5.8 |  |  | 40
4 | O=S(=O)(c1ccccc1)N(CC(F)(F)F)c1ccc(C(O)(C(F)(F)F)C(F)(F)F)cc1 [T091317] | 4.5 | > 40 | 3.6 |  |  |  | 
5 | CC(C)c1cc(C(C)C)c(S(=O)(=O)n2c3ccc(Cl)cc3c3ccc(C(C)C(=O)O)cc32)c(C(C)C)c1 (stereo not given) |  |  |  | 9.3 |  |  | 40
6 | Cc1ccc(S(=O)(=O)n2c3ccc(Cl)cc3c3ccc(C(C)C(=O)OCc4ccccc4)cc32)cc1 (stereo not given) | 20 |  | 20 |  |  | inactive | > 40

The next lines start with results.

Row | IC50 (Gamma-secretase [1]) [µM] | IC50 (Gamma-secretase [2]) [µM] | EC50 (Gamma-secretase [3]) [µM] | EC50 (Gamma-secretase [4]) [µM] | IC50 (Gamma-secretase [5]) [µM] | Activity [6] | SMILES | Activity (H4) [µM]
7 | > 20 | > 40 | > 20 |  |  |  | CC(C(=O)OCc1ccccc1)c1ccc2c3cc(Cl)ccc3n(S(=O)(=O)c3cc(C(F)(F)F)cc(C(F)(F)F)c3)c2c1 (stereo not given) | > 40
8 | > 40 | > 40 | 10.6 |  |  |  | CC(C)(C)OC(=O)COc1ccc(NS(=O)(=O)c2cc(C(F)(F)F)cc(C(F)(F)F)c2)cc1 | > 40
9 |  | > 40 |  | 23.7 | 19.6 |  | CCCCCCCCN(c1ccc(OCC(=O)O)cc1)S(=O)(=O)c1cc(C(F)(F)F)cc(C(F)(F)F)c1 | 40
10 | 13.3 | > 40 | 6.2 |  |  |  | CCCCCCCCN(c1ccc(OCC(=O)OC(C)(C)C)cc1)S(=O)(=O)c1cc(C(F)(F)F)cc(C(F)(F)F)c1 | > 40
